Values of other authors, collected in paper PMC2099433, “The binding site for neohesperidin dihydrochalcone at the human sweet taste receptor” (BMC Structural Biology, 2007).

Legend:
sweet taste [1] = system: sweet taste; design: method as in PMID 10480680; conditions: humans; cited from earlier work
sweet taste [2] = system: sweet taste; design: method as in PMID 831282, PMID 14403185; conditions: cited from earlier work

## COc1ccc(OC(C)C(=O)O)cc1 (centres unmarked) [lactisole]
Sweet taste [1]
  inhibition of the sweet taste of NHDC: did not inhibit the sweet taste of NHDC

## COc1ccc(CCC(=O)c2c(O)cc(O)cc2O)cc1O [hesperitin dihydrochalcone]
Sweet taste [2]
  taste: tastes sweet
